Legend:
[1] = Wright et al., 2008; cited from earlier work
[2] = test system: cerebral microvascular endothelial cells (D3); assay: Aβ-induced mitochondrial Cytochrome C release; assay type: cell-based, human; details: Example 3
Procedure: Both EC and SH-SY5Y cells were plated on to glass chamber slides (Thermo Fisher Scientific), pre-coated with either collagen-I or poly-d-lysine (for ECs and SH-SY5Y cells respectively). After seeding, cells were allowed to attach for 1 day before treatment with the different peptides for 1-3 days, as above. Cells were washed with ice-cold PBS, fixed with 4% paraformaldehyde (10 min at room temperature) and blocked for 1 h with 20 mg/ml BSA in PBST (PBS containing 0.3% Triton X-100). Slides were further incubated with mouse anti-CytC monoclonal antibody (BD Biosciences; 1:200 dilution in PBST containing 5 mg/ml BSA; 2 h at room temperature) followed by Alexa Fluor® 488-conjugated anti-(mouse IgG) antibody (Invitrogen; 1:200 in PBST with 5 mg/ml BSA; 1 h at room temperature). Fluorescence signals were visualized in a Nikon Eclipse E 800 deconvolution microscope using NIS Elements software (Nikon Instruments) for image acquisition and processing, and AutoQuant (Media Cybernetics) for 3D deconvolution. The effect of methazolamide in preventing the Aβ-induced release of CytC from the mitochondria into the cytoplasm was evaluated in EC and SH-SY5Y cultures. […]

Glioma cells = assay: Aβ-induced mitochondrial Cytochrome C release; assay type: cell-based, human
Procedure: (§1) Both SH-SY5Y cells and Glioma cells were plated on glass chamber slides (Thermo Fisher Scientific, Rochester, N.Y.). Slides were pre-coated with poly-D-lysine for SH-SY5Y cells. After seeding, cells were allowed to attach for 1 day prior to treatment with Aβ in the presence or absence of MTZ for 24 hours. Cells were then washed with PBS, fixed with 4% paraformaldehyde (10 min, RT) and blocked for 1 hour with 20 mg/ml BSA in PBS containing 0.3% Triton X-100 (PBST). Slides were further incubated with mouse monoclonal anti-CytC antibody (BD Biosciences; 1:200 in PBST containing 5 mg/ml BSA; 2 h, RT) followed by Alexa Fluor 488-conjugated anti-mouse IgG (Life Technologies, Grand Island, N.Y.) 1:200 in PBST with 5 mg/ml BSA for 1 h at RT, as previously described (Fossati et al., 2013). Fluorescence signals were visualized in a Zeiss LSM 510 laser scanning confocal/Confocor2 microscope using a 40×DIC oil immersion objective and LSM 510 software; acquired images were imported into ImageJ (National Institute of Health; http://rsbweb.nih.gov/ij/).
(§2) Subcellular distribution of CytC in amyloid-challenged SH-SY5Y and glioma cells was determined in mitochondrial and cytoplasmic protein extracts prepared using Mitochondria Isolation Kit (MITOISO2, Sigma) following the manufacturer's specifications. Briefly, after amyloid challenge in the presence and absence of Methazolamide, as above, cells were collected by trypsinization, resuspended in 10 mM HEPES, pH 7.5, containing 200 mM mannitol, 70 mM sucrose, 1 mM EGTA added of Protease Inhibitor Cocktail, and homogenized with the aid of a Dounce glass homogenizer. Cell homogenates were centrifuged to remove unbroken cells and nuclei (600×g, 5 min, 4° C.) and supernatants further centrifuged at 11,000×g (5 min, 4° C.) to subfractionate mitochondria. Supernatants, representing the cytosolic fractions as well as mitochondrial fractions were analyzed by CytC ELISA and WB.
(§3) The concentration of CytC in cytosolic and mitochondrial fractions was quantitated by solid phase sandwich ELISA (Quantikine ELISA, human Cytochrome C Immunoassay, R&D Systems) as described by the manufacturer. Prior to the assay, fractions containing cytoplasmic proteins were concentrated on Vivaspin 500 centrifugal concentrators (GE HealthCare, molecular weight cut off 5000), mitochondrial pellets were resuspended in Cell Lysis Buffer provided with the kit, and total protein of the respective fractions was evaluated by BCA protein assay (Thermo Fisher Scientific/Pierce). […] After washing away unbound proteins, wells were further incubated with an HRP-linked monoclonal antibody anti-human CytC, color developed with tetramethylbenzinine peroxidase substrate, and evaluated through quantitation of the Absorbance at 450 nm. […]

SH-SY5Y cells = assay: Aβ-induced mitochondrial Cytochrome C release; assay type: cell-based, human
Procedure: as §1, §2, §3

Aβ42 and Aβ40-Q22 = molecular target: T1, Aβ42 and Aβ40-Q22 (Homo sapiens, UniProt P05067, E693Q); assay: Thioflavin T binding assay of Aβ aggregation; details: 100 or 300 μM MTZ; aggregation up to 3 days
T1 construct: purchased James I. Elliott at Yale University (custom chemical peptide synthesis)
Procedure: Binding of the different Aβ peptides to Thioflavin-T was monitored by fluorescence evaluation, as described (Fossati et al., 2010; Walsh et al., 1999). Briefly, after peptide aggregation at 50 μM concentration in culture media in the presence or absence of MTZ, 6 μl aliquots from each of the time-points were added to 184 μl of 50 mM Tris-HCl buffer, pH 8.5, and 10 μl of 0.1 mM Thioflavin-T (Sigma). Fluorescence was recorded for 300 s in a LS-50B luminescence spectrometer (Perkin Elmer, Waltham, Mass.) with excitation and emission wavelengths of 435 and 490 nm (slit width 10 nm), respectively, as described (Solito et al., 2009; Viana et al., 2009).

[3] = 100 μM MTZ together with Aβ42 10 μM, 24 hours
[4] = MTZ 100 and 300 μM, Aβ42 10 μM, 24 h

Compound | well tolerated daily dose in humans [1] [mg] | CytC localization (immunocytochemistry) ([2]; Aβ40-Q22 25 μM or Aβ40/42 WT 10 μM, 24 h) | release of CytC, cells with diffuse green staining as % of total cells ([2]; FIG. 23B) | release of CytC (immunocytochemistry) (Glioma cells; [3]) | release of CytC by ELISA and Western blot in mitochondrial and cytosolic fractions (Glioma cells; [4]) | release of CytC (immunocytochemistry) (SH-SY5Y cells; [3]) | release of CytC by ELISA and Western blot in mitochondrial and cytosolic fractions (SH-SY5Y cells; [4]) | Aβ fibrillization by Thioflavin T fluorescence (Aβ42 and Aβ40-Q22)
CC(=O)Nc1nnc(S(N)(=O)=O)s1 [ATZ, acetazolamide] | ≤ 1000 |  |  |  |  |  |  | 
CC(=O)/N=c1/sc(S(N)(=O)=O)nn1C [MTZ, methazolamide] |  | retained in the mitochondria | prevented | prevented | inhibition | prevented | inhibition | no significant difference in fibrillization
